Experimental data taken from the NIST ThermoML archive (doi:10.1016/j.jct.2007.09.004).

What was measured:
[1] = xn = mol fraction of the nth substance listed; settings: 101 kPa, Liquid
[2] = relative permittivity at zero frequency (dimensionless); xn = mol fraction of the nth substance listed; settings: 101 kPa, Liquid, Parallel plate capacitor
[3] = relative permittivity at zero frequency (dimensionless); settings: 101 kPa, Liquid, Parallel plate capacitor
[4] = 101 kPa, Liquid

CCCOCCO [2-propoxyethanol] + OCCOCCOCCO
Settings	mass density, 293.15 K [kg/m3]	mass density, 298.15 K [kg/m3]	mass density, 303.15 K [kg/m3]	relative permittivity at zero frequency, 293.15 K	relative permittivity at zero frequency, 298.15 K	relative permittivity at zero frequency, 303.15 K
[1], x1 = 0.0413	1116.67	1112.44	1108.49	–	–	–
[1], x1 = 0.1061	1105.37	1100.97	1096.78	–	–	–
[1], x1 = 0.1986	1088.75	1084.08	1079.65	–	–	–
[1], x1 = 0.2999	1069.72	1064.9	1060.23	–	–	–
[1], x1 = 0.3999	1050.01	1045.15	1040.34	–	–	–
[1], x1 = 0.5	1029.46	1024.57	1019.67	–	–	–
[1], x1 = 0.6	1008.1	1003.16	998.18	–	–	–
[1], x1 = 0.7002	985.9	980.84	975.77	–	–	–
[1], x1 = 0.8	962.85	957.69	952.55	–	–	–
[1], x1 = 0.9	938.69	933.46	928.29	–	–	–
[1], x1 = 0.95	926.18	920.99	915.81	–	–	–
[1], x1 = 1	913.31	908.19	903.11	–	–	–
[2], x1 = 0.0501	–	–	–	23.33	22.71	22.07
[2], x1 = 0.1003	–	–	–	22.93	22.33	21.68
[2], x1 = 0.2005	–	–	–	22.09	21.51	20.89
[2], x1 = 0.2999	–	–	–	21.25	20.64	20.02
[2], x1 = 0.4001	–	–	–	20.35	19.66	19.06
[2], x1 = 0.5	–	–	–	19.33	18.59	18.02
[2], x1 = 0.6002	–	–	–	18.11	17.41	16.88
[2], x1 = 0.7002	–	–	–	16.71	16.13	15.63
[2], x1 = 0.8	–	–	–	15.16	14.73	14.28
[2], x1 = 0.9	–	–	–	13.53	13.18	12.78
[2], x1 = 0.95	–	–	–	12.69	12.36	11.99
[2], x1 = 1	–	–	–	11.76	11.5	11.19

CCCOCCO [2-propoxyethanol] + OCCOCCO
Settings	mass density, 293.15 K [kg/m3]	mass density, 298.15 K [kg/m3]	mass density, 303.15 K [kg/m3]	relative permittivity at zero frequency, 293.15 K	relative permittivity at zero frequency, 298.15 K	relative permittivity at zero frequency, 303.15 K
[1], x1 = 0.0436	1106.38	1102.72	1098.89	–	–	–
[1], x1 = 0.1	1093.5	1089.56	1085.52	–	–	–
[1], x1 = 0.2007	1071	1066.79	1062.47	–	–	–
[1], x1 = 0.2997	1049.58	1045.22	1040.76	–	–	–
[1], x1 = 0.3999	1028.62	1024.11	1019.56	–	–	–
[1], x1 = 0.4968	1008.87	1004.21	999.53	–	–	–
[1], x1 = 0.6002	988.3	983.48	978.63	–	–	–
[1], x1 = 0.6985	969.23	964.21	959.16	–	–	–
[1], x1 = 0.7998	950.04	944.82	939.65	–	–	–
[1], x1 = 0.8992	931.65	926.35	921.14	–	–	–
[1], x1 = 0.9499	922.4	917.14	911.97	–	–	–
[1], x1 = 1	913.31	908.19	903.11	–	–	–
[2], x1 = 0.0435	–	–	–	31.3	30.42	29.5
[2], x1 = 0.0998	–	–	–	30.58	29.69	28.76
[2], x1 = 0.197	–	–	–	29.18	28.31	27.4
[2], x1 = 0.2962	–	–	–	27.57	26.74	25.88
[2], x1 = 0.3996	–	–	–	25.72	24.95	24.14
[2], x1 = 0.4964	–	–	–	23.82	23.13	22.39
[2], x1 = 0.5955	–	–	–	21.73	21.13	20.46
[2], x1 = 0.6996	–	–	–	19.43	18.88	18.29
[2], x1 = 0.8001	–	–	–	17.06	16.58	16.06
[2], x1 = 0.8999	–	–	–	14.55	14.13	13.7
[2], x1 = 0.9499	–	–	–	13.2	12.83	12.46
[2], x1 = 1	–	–	–	11.76	11.5	11.19

OCCOCCOCCO [triethylene glycol]
Settings	mass density, 293.15 K [kg/m3]	mass density, 298.15 K [kg/m3]	mass density, 303.15 K [kg/m3]	relative permittivity at zero frequency, 293.15 K	relative permittivity at zero frequency, 298.15 K	relative permittivity at zero frequency, 303.15 K
[3]	–	–	–	23.69	23.07	22.43
[4]	1123.74	1119.66	1115.83	–	–	–
